pIC50: −log10 of the molar value.
Target: T1, ERCC1/XPF (XPF endonuclease) (Homo sapiens, UniProt Q92889)
T1 construct: gene ERCC4; with ERCC1
Assay: fluorescence-based DNA incision assay with purified ERCC1/XPF
Assay type: biochemical

T1 sequence (Q92889 whole entry): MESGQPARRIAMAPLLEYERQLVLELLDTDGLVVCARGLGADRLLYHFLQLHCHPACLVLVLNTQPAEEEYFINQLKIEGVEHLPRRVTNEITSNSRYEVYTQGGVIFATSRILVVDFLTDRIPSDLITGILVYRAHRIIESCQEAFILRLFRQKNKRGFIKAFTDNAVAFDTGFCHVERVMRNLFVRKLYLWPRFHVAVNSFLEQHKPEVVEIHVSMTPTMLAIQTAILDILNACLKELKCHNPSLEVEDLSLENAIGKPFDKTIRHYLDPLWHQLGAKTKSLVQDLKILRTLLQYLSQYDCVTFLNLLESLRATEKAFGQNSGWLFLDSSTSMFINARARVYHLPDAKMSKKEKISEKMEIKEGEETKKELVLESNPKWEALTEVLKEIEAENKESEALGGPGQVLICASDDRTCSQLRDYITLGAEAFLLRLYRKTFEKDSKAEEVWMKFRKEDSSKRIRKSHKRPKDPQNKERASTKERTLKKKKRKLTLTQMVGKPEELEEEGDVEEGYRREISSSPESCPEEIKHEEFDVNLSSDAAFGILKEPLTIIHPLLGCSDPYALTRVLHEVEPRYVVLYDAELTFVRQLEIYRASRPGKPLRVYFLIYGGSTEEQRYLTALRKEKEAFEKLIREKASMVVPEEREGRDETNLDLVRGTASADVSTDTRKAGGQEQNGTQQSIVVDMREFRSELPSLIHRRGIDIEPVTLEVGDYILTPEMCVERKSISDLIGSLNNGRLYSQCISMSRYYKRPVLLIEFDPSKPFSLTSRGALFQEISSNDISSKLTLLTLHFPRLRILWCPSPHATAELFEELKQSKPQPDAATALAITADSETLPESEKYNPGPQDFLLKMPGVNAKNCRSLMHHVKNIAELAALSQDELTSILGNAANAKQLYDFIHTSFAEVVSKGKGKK
T1 sequence (P07992 whole entry, further chain): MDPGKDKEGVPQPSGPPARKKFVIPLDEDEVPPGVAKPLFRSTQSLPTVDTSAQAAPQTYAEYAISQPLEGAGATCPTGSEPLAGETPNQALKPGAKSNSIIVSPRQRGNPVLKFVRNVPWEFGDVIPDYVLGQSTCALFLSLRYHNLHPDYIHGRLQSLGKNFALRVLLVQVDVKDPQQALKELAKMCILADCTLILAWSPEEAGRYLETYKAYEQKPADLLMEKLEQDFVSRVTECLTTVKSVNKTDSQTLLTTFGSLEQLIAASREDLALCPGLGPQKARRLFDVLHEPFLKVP

## O=c1c(O)c(-c2cc(O)c(O)c(O)c2)oc2cc(O)cc(O)c12 [Myricetin]
  pIC50: ~6.82

From publication PMC6267282, “Targeting the DNA Repair Endonuclease ERCC1-XPF with Green Tea Polyphenol Epigallocatechin-3-Gallate (EGCG) and Its Prodrug to Enhance Cisplatin Efficacy in Human Cancer Cells” (Nutrients, 2018)
